Test results published in patent EP4603105A1, “PHARMACEUTICAL COMPOSITION CONTAINING CYCLIC COMPOUND HAVING SELECTIVE KRAS INHIBITORY EFFECT AGAINST HRAS AND NRAS” (CHUGAI SEIYAKU KABUSHIKI KAISHA, priority 2022, dated 2024).
pIC50: −log10 of the molar value.

Assays:
[1] = test system: human lung cancer strain NCI-H441; assay type: cell-based
Method in brief: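 Step one: dispense the test compound in serial DMSO dilutions. Step three: add the reagent and measure […].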

[2] = molecular target: HRAS wild-type protein (Homo sapiens, UniProt P01112); test: Binding to HRAS by surface plasmon resonance (SPR), KD and KD ratio to KRAS; conditions: ratio of KD for HRAS wild-type protein to KD for KRAS
HRAS wild-type protein, sequence (P01112 whole entry): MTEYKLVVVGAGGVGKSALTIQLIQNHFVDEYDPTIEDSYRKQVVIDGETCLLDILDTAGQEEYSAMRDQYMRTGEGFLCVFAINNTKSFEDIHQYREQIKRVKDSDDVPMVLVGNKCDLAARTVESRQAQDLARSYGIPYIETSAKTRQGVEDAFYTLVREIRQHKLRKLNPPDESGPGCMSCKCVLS
Method in brief: (§1)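 Captured GDP-RAS (~100–300 RU) was exposed to increasing compound concentrations, 75 s per step, in running buffer with 10 µM GDP, 10 mM MgCl2 and 4% DMSO at pH 7.4.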

[3] = molecular target: GDP-bound NRAS wild-type protein (Homo sapiens, UniProt P01111); test: Binding to NRAS by surface plasmon resonance (SPR), KD and KD ratio to KRAS; conditions: ratio of KD for GDP-bound NRAS wild-type protein to KD for KRAS
GDP-bound NRAS wild-type protein, sequence (P01111 whole entry): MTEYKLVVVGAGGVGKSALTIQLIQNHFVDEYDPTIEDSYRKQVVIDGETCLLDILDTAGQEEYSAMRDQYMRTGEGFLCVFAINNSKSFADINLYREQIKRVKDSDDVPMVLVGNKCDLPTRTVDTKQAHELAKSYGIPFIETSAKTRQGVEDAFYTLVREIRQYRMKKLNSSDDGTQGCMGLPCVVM
Method in brief: as §1

| Structure (SMILES) | pIC50 [1] | HRAS /KRAS [2] | NRAS /KRAS [3] |
| --- | --- | --- | --- |
| CCCC[C@H]1C(=O)N[C@@H]([C@@H](C)CC)C(=O)N(C)CC(=O)N(C)[C@H]2C/C=C\CCN(C2=O)[C@@H](Cc2ccc(C)cc2)C(=O)N(C)CC(=O)N[C@@H](CCc2cc(F)c(C(F)(F)F)c(F)c2)C(=O)N2C[C@H](OCC)C[C@H]2C(=O)NC2(CCC2)C(=O)N(C)[C@@H](C2CCCC2)C(=O)N(C)[C@H](C(=O)N(C)CC)CC(=O)N1C [PP2796] | 8.02 | A (a compound having 10 or more and less than 20 is denoted as A) | A (a compound having 10 or more and less than 20 is denoted as A) |
| CCCC[C@H]1C(=O)N[C@@H]([C@@H](C)CC)C(=O)N(C)CC(=O)N(C)[C@H]2C/C=C\CCN(C2=O)[C@@H](Cc2ccc(C)cc2)C(=O)N(C)CC(=O)N[C@@H](CCc2cc(F)c(C(F)(F)F)c(F)c2)C(=O)N2C[C@H](OCC)C[C@H]2C(=O)NC2(CCC2)C(=O)N(C)[C@@H](C2CCCC2)C(=O)N(C)[C@H](C(=O)N(C)C)CC(=O)N1C [PP2798] | 8.07 | A (a compound having 10 or more and less than 20 is denoted as A) | A (a compound having 10 or more and less than 20 is denoted as A) |
| CCC[C@H]1C(=O)N[C@@H]([C@@H](C)CC)C(=O)N(C2CC2)CC(=O)N(C)[C@H]2C/C=C\CCN(C2=O)[C@@H](Cc2ccc(C)cc2)C(=O)N(C)CC(=O)N[C@@H](CCc2ccc(C(F)(F)F)c(OC)c2)C(=O)N2C[C@H](OCC)C[C@H]2C(=O)NC2(CC(C)(C)C2)C(=O)N(C)[C@@H](CC2CC2)C(=O)N(C)[C@H](C(=O)N(C)C)CC(=O)N1C [PP2803] | 6.92 | A (a compound having 10 or more and less than 20 is denoted as A) | A (a compound having 10 or more and less than 20 is denoted as A) |
| CC[C@H](C)[C@@H]1NC(=O)[C@H](CC2CC2)N(C)C(=O)C[C@@H](C(=O)N(C)C)N(C)C(=O)[C@H](C2CCCC2)N(C)C(=O)C2(CC(C)(C)C2)NC(=O)[C@@H]2C[C@@H](F)CN2C(=O)[C@H](CCc2cc(F)c(C(F)(F)F)c(F)c2)NC(=O)CN(C)C(=O)[C@H](Cc2ccc(C)cc2)N2CC/C=C\C[C@@H](C2=O)N(C)C(=O)CN(C)C1=O [PP2804] | 8.66 | A (a compound having 10 or more and less than 20 is denoted as A) | A (a compound having 10 or more and less than 20 is denoted as A) |
| CCCC[C@H]1C(=O)N[C@@H]([C@@H](C)CC)C(=O)N(C)CC(=O)N(C)[C@H]2C/C=C\CCN(C2=O)[C@@H](Cc2ccc(C(F)(F)F)cc2)C(=O)N(C)CC(=O)N[C@@H](CCc2cc(F)c(C(F)(F)F)c(F)c2)C(=O)N2C[C@H](OCC)C[C@H]2C(=O)NC2(CC(C)(C)C2)C(=O)N(C)[C@@H](C2CCCC2)C(=O)N(C)[C@H](C(=O)N(C)CC)CC(=O)N1C [PP2806] | 7.95 | A (a compound having 10 or more and less than 20 is denoted as A) | A (a compound having 10 or more and less than 20 is denoted as A) |
| CCC[C@H]1C(=O)N[C@@H]([C@@H](C)CC)C(=O)N(C)CC(=O)N(C)[C@H]2C/C=C\CCN(C2=O)[C@@H](Cc2ccc(C(F)(F)F)cc2)C(=O)N(C)CC(=O)N[C@@H](CCc2cc(F)c(C(F)(F)F)c(F)c2)C(=O)N2C[C@H](OCC)C[C@H]2C(=O)NC2(CC(C)(C)C2)C(=O)N(C)[C@@H](CC2CC2)C(=O)N(C)[C@H](C(=O)N(C)C)CC(=O)N1C [PP2807] | 7.55 | A (a compound having 10 or more and less than 20 is denoted as A) | AA (a compound having 20 or more is denoted as AA) |
| CCCC[C@H]1C(=O)N[C@@H]([C@@H](C)CC)C(=O)N(C)CC(=O)N(C)[C@H]2C/C=C\CCN(C2=O)[C@@H](Cc2ccc(C)cc2)C(=O)N(C)CC(=O)N[C@@H](CCc2cc(F)c(C(F)(F)F)c(F)c2)C(=O)N2C[C@H](OCC)C[C@H]2C(=O)NC2(CC(C)(C)C2)C(=O)N(C)[C@@H](C2CCCC2)C(=O)N(C)[C@H](C(=O)N(C)CC)CC(=O)N1C [PP2808] | 7.88 | B (a compound having 3 or more and less than 10 is denoted as B) | B (a compound having 3 or more and less than 10 is denoted as B) |
| CCC[C@H]1C(=O)N[C@@H]([C@@H](C)CC)C(=O)N(C)CC(=O)N(C)[C@H]2C/C=C\CCN(C2=O)[C@@H](Cc2ccc(C(F)(F)F)cc2)C(=O)N(C)CC(=O)N[C@@H](CCc2ccc(C(F)(F)F)c(OC)c2)C(=O)N2C[C@H](OCC)C[C@H]2C(=O)NC2(CC(C)(C)C2)C(=O)N(C)[C@@H](CC2CC2)C(=O)N(C)[C@H](C(=O)N(C)C)CC(=O)N1C [PP2809] | 7.12 | A (a compound having 10 or more and less than 20 is denoted as A) | A (a compound having 10 or more and less than 20 is denoted as A) |
| CCC[C@H]1C(=O)N[C@@H]([C@@H](C)CC)C(=O)N(C)CC(=O)N(C)[C@H]2C/C=C\CCN(C2=O)[C@@H](Cc2ccc(C(F)(F)F)cc2)C(=O)N(C)CC(=O)N[C@@H](CCc2ccc(Cl)c(Cl)c2)C(=O)N2C[C@H](OCC)C[C@H]2C(=O)NC2(CC(C)(C)C2)C(=O)N(C)[C@@H](CC2CC2)C(=O)N(C)[C@H](C(=O)N(C)C)CC(=O)N1C [PP2811] | 7.00 | A (a compound having 10 or more and less than 20 is denoted as A) | A (a compound having 10 or more and less than 20 is denoted as A) |
| CCC[C@H]1C(=O)N[C@@H]([C@@H](C)CC)C(=O)N(C2CC2)CC(=O)N(C)[C@H]2C/C=C\CCN(C2=O)[C@@H](Cc2ccc(C(F)(F)F)cc2)C(=O)N(C)CC(=O)N[C@@H](CCc2cc(F)c(C(F)(F)F)c(F)c2)C(=O)N2C[C@H](OCC)C[C@H]2C(=O)NC2(CC(C)(C)C2)C(=O)N(C)[C@@H](CC2CC2)C(=O)N(C)[C@H](C(=O)N(C)C)CC(=O)N1C [PP2813] | 7.07 | A (a compound having 10 or more and less than 20 is denoted as A) | AA (a compound having 20 or more is denoted as AA) |
| CCC[C@H]1C(=O)N[C@@H]([C@@H](C)CC)C(=O)N(C2CC2)CC(=O)N(C)[C@H]2C/C=C\CCN(C2=O)[C@@H](Cc2ccc(C(F)(F)F)cc2)C(=O)N(C)CC(=O)N[C@@H](CCc2ccc(C(F)(F)F)c(OC)c2)C(=O)N2C[C@H](OCC)C[C@H]2C(=O)NC2(CC(C)(C)C2)C(=O)N(C)[C@@H](CC2CC2)C(=O)N(C)[C@H](C(=O)N(C)C)CC(=O)N1C [PP2815] | 6.73 | A (a compound having 10 or more and less than 20 is denoted as A) | A (a compound having 10 or more and less than 20 is denoted as A) |
| CCC[C@H]1C(=O)N[C@@H]([C@@H](C)CC)C(=O)N(C2CC2)CC(=O)N(C)[C@H]2C/C=C\CCN(C2=O)[C@@H](Cc2ccc(C(F)(F)F)cc2)C(=O)N(C)CC(=O)N[C@@H](CCc2ccc(Cl)c(Cl)c2)C(=O)N2C[C@H](OCC)C[C@H]2C(=O)NC2(CC(C)(C)C2)C(=O)N(C)[C@@H](CC2CC2)C(=O)N(C)[C@H](C(=O)N(C)C)CC(=O)N1C [PP2817] | 7.26 | A (a compound having 10 or more and less than 20 is denoted as A) | A (a compound having 10 or more and less than 20 is denoted as A) |
| CCC(CC)[C@H]1C(=O)N(C)[C@H](C(=O)N(C)C)CC(=O)N(C)[C@@H](COC)C(=O)N[C@@H]([C@@H](C)CC)C(=O)N(C)CC(=O)N(C)[C@H]2C/C=C\CCN(C2=O)[C@@H](Cc2ccc(C)cc2)C(=O)N(C)CC(=O)N[C@@H](CCc2ccc(Cl)c(Cl)c2)C(=O)N2C[C@H](OC3CCCC3)C[C@H]2C(=O)N(C)C2(CC(C)(C)C2)C(=O)N1C [PP2818] | 7.11 | A (a compound having 10 or more and less than 20 is denoted as A) | A (a compound having 10 or more and less than 20 is denoted as A) |
| CCC[C@H]1C(=O)N[C@@H]([C@@H](C)CC)C(=O)N(C2CC2)CC(=O)N(C)[C@H]2C/C=C\CCN(C2=O)[C@@H](Cc2ccc(C(F)(F)F)cc2)C(=O)N(C)CC(=O)N[C@@H](CCc2ccc(Cl)c(Cl)c2)C(=O)N2C[C@H](OCC)C[C@H]2C(=O)NC2(CC(C)(C)C2)C(=O)N(C)[C@@H](CC2CCC2)C(=O)N(C)[C@H](C(=O)N(C)C)CC(=O)N1C [PP2819] | 6.99 | A (a compound having 10 or more and less than 20 is denoted as A) | A (a compound having 10 or more and less than 20 is denoted as A) |
| CCO[C@@H]1C[C@H]2C(=O)NC3(CC(C)(C)C3)C(=O)N(C)[C@@H](CC3CCC3)C(=O)N(C)[C@H](C(=O)N(C)C)CC(=O)N(C)[C@@H](COC)C(=O)N[C@@H]([C@@H](C)CC)C(=O)N(C3CC3)CC(=O)N(C)[C@H]3C/C=C\CCN(C3=O)[C@@H](Cc3ccc(C(F)(F)F)cc3)C(=O)N(C)CC(=O)N[C@@H](CCc3ccc(Cl)c(Cl)c3)C(=O)N2C1 [PP2821] | 7.04 | A (a compound having 10 or more and less than 20 is denoted as A) | A (a compound having 10 or more and less than 20 is denoted as A) |
